Series [1] deals with Pten-mutant B cells. Description: Proliferation and survival assays (CFSE, propidium iodide staining) with anti-IgM. Conditions: for division of Pten-mutant cells: 3 days of stimulation with BCR signal, CFSE. The class given is cell-based, mouse. An excerpt:
Pten(+/−) mice and Pten^flox/+ mice (background strain C57/BL6) were provided by Dr. Pandolfi PP (Di Cristofano et al., 1999 Science 285:2122). To generate B cell-specific Pten-deficient mice, Pten^flox/+ mice were crossed with CD19^cre/+ transgenic mice (purchased from Jackson lab). Offspring carrying CD19^cre/+ and the floxed Pten mutation on both alleles (Pten^flox/flox CD19^Cre/+), and the wild-type Pten gene (Pten^+/+ CD19^Cre/+) were used for analysis as homozygous mutant, wild-type mice, respectively. The mice were maintained under specific pathogen-free conditions in the animal colony of Weill Medical college of Cornell University. Pten^flox/flox CD19^Cre/+ mice were crossed with c-Rel-deficient mice (Tumang et al., 1998 Eur J Immunol 28:4299) to generate the double deficient mice.
For propidium iodide staining assay, B-cells were cultured in 10 μg/ml anti-IgM or 10 μg/ml anti-CD40 or 10 μg/ml LPS. At the indicated time points, cells were collected and stained with a solution containing 50 μg/ml propidium iodide, 20 ng/ml RNase A, 0.1% Triton X-100, and 0.1% sodium citrate. Duplicate samples were then analyzed on a Becton-Dickinson FACS using Cell-Quest software, and the percentage of apoptotic cells (<2N DNA content) or S and G2/M phase cells (>2N DNA content) quantified. For ^3H-thymidine incorporation assays, B-cells were plated at 1×10^5 cells per well in 96-well U-bottomed plates and cultured in complete media containing RPMI 1640, 10% heat inactivated FCS (DeWned; Hyclone, Logan, Utah), 2 mM L-glutamine, 1 mM non-essential amino acids, 100 μg/ml, penicillin/streptomycin, and 5×10^−5 M/L^−1 mercaptoethanol at 37° C. and 5% CO2. Where indicated, cells were stimulated with 10 μg/ml goat anti-mouse IgM F(ab′)2 (anti-IgM, Jackson ImmunoResearch Laboratories), or 10 μg/ml anti-CD40 (mAb 1C 10), or 10 μg/ml LPS. Six hours prior to the indicated time points, cultures were incubated with 0.5 μCi/well thymidine (Amersham), and then harvested onto Whatman Filters to determine proliferative responses by thymidine incorporation. […]

In series [2] the test system is Pten-mutant and control B cells. Briefly: Mitochondrial potential by JC-1 staining. Format: cell-based, mouse. The note with it: anti-IgM treatment, within 12 hours. As for the experimental part: B cells were cultured to a density of 0.5−1.0×10^6 cells/ml. For each condition, 1 ml of cells was treated with the appropriate agent for the appropriate length of time as shown in FIG. 8C. Mitochondrial potential was assessed by using the fluorescent potentiometric dye JC-1 (5,5′,6,6′,-tetrachloro-1,1′,3,3′-tetraethylbenzimidazolylcarbocyanine iodide, Molecular Probe). JC-1 is a novel cationic carbocyanine dye that accumulates in mitochondria. The dye exists as a monomer at low concentrations and yields green fluorescence, similar to fluorescein. […] These characteristics make JC-1 a sensitive marker for mitochondrial membrane potential. Briefly, 0.3 ml of the cells were mixed with 0.3 ml of staining solution (complete medium containing 0.5 μg/1 ml JC-1). Cells were stained for 30 min in a 37° C. incubator (5% CO2). After staining, cells were collected at room temperature and washed once in 1×PBS. The cell pellet was then resuspended in PBS (pre-warmed to 37° C.), and JC-1 fluorescence was analyzed on a Becton-Dickinson FACS using Cell-Quest software.

Series [3] concerns immature B cells. Briefly: Anti-IgM induced apoptosis. The note with it: 50 mM inhibitor. The class given is cell-based, mouse. Here is the method: Mature and immature B cells (>95% B220+) were isolated from untreated mice or sublethally irradiated mice by complement-mediated lysis and Percoll gradient as described previously, and cultured in RPMI 1640 media containing 10% fetal calf serum (FCS) (Cellgro), 1% penicillin, 1% streptomycin (both Life Sciences BRL), and 50 uM b-mercaptoethanol (Sigma). For caspase experiments, 2×10^6/ml B cells were plated per well in 24-well polystyrene flat-bottom plates (Corning) in 1000 ul of total culture volume. […]
The following antibodies were used for FACS analysis: anti-CD24 (HSA), anti-CD21, anti-IgD, anti-IgM, and anti-B220 (RA3-6B2), labeled with R-phycoerythrin (PE), FITC or Allophyocyanin (APC), all purchased from Pharmigen. […] Duplicate samples were then analyzed by FACS (Becton-Dickinson) using CellQuest software, and the percentage of apoptotic cells (<2N DNA content) or S and G2/M phase cells (>2N DNA content) quantified. For PIP3 assays, PIP3 levels were measured using a biotin-labeled antibody against anti-PI-3,4,5-P3 (a gift from Dr. Paul Neilsen, Echelon, Salt Lake City, Utah) and FACS following a published protocol.

Series [4] deals with immature B cells. Briefly: BCR-induced mitochondrial depolarization, JC-1 staining. The class given is cell-based, mouse. The note with it: 50 mM inhibitor, anti-IgM. Here is the method: Mature and immature B cells (>95% B220+) were isolated from untreated mice or sublethally irradiated mice by complement-mediated lysis and Percoll gradient as described previously, and cultured in RPMI 1640 media containing 10% fetal calf serum (FCS) (Cellgro), 1% penicillin, 1% streptomycin (both Life Sciences BRL), and 50 uM b-mercaptoethanol (Sigma). For caspase experiments, 2×10^6/ml B cells were plated per well in 24-well polystyrene flat-bottom plates (Corning) in 1000 ul of total culture volume. The following combinations of agents were added for 12 hr or 24 hr at 37° C.: 10 mg/ml of goat anti-mouse IgM F(ab)2 (anti-IgM, Jackson ImmunoResearch Laboratories), 50 mM of z-VAD-fmk, a pan-caspase inhibitor, or 50 mM of z-LEHD-fmk, a specific […], or 50 mM of z-FA-fmk, a cathepsin B inhibitor (Enzyme System Products). For the PI3K assay, 5×10^6 B cells were plated per well in 24-well polystyrene flat-bottom plates (Corning) in 2 ml final culture volume, with 10 mg/ml of goat anti-mouse IgM F(ab′)2 added for the indicated time at 37° C. […]
Cells were cultured at a density of 0.5−1.0×10^6 cells/ml. […] The dye exists as a monomer at low concentrations and yields green fluorescence, similar to fluorescein. […] The cell pellet was then resuspended in PBS, and JC-1 fluorescence analyzed by FACS.

Series [5] concerns the target T1, c-Rel (homodimer) (Homo sapiens, UniProt Q04864 Q04864:2-619).
T1 sequence: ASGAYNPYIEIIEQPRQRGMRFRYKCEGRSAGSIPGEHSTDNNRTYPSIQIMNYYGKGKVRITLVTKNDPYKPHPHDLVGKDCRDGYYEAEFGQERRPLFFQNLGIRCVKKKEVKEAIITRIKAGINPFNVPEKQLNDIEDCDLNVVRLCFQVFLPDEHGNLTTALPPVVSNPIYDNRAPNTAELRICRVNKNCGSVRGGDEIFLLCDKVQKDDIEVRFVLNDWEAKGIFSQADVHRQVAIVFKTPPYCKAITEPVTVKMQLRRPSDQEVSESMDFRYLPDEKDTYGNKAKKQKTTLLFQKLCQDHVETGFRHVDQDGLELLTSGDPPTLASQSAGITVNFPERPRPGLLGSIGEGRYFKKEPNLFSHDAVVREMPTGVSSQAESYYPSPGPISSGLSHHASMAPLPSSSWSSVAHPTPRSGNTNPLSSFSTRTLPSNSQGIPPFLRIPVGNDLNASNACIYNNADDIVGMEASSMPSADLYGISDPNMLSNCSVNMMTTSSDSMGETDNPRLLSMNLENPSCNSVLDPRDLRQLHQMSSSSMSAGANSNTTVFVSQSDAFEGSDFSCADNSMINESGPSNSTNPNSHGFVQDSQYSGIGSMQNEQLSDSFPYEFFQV
Briefly: competition; unlabeled CD28RE returns FP to basal level at 128 nM. The note with it: tags: C-terminal His, E. coli BL-21 Lys (DE3); full-length or subdomain (not specified); chain copies: 2 stated. Here is the method:
(§1) According to the EMSA data, the concentrations of FITC-labeled DNA probe and c-Rel protein used in FP screen assay were optimized. Initially, the fluorescently labeled probe was added in different concentrations (5 nM, 10 nM, 100 nM) while c-Rel protein concentration (2000 nM) was constant, and the reactions were incubated for 15-30 minutes at room temperature, and then transferred to the wells of 384-well plate (20 μl/well). The FP values were measured using FUSION Universal Microplate Analyzer (Perkin Elmer, PE). […] In most cases, there is an increase in FP, with FP signals saturated in the presence of 128 nM of c-Rel. The dissociation constant (Kd) calculated using this method is larger than that observed using EMSA.
To exclude the possibility that non-specific interaction of c-Rel protein with DNA molecules contributes to the increase in FP value, a cold competition experiment was performed. […] However, a control DNA molecule, the unlabeled Oct1 (20 mers) in the same conditions as applied to the cold CD28RE probe, had no effect on FP value. Thus, this assay specifically and quantitatively measured interactions in the interface between c-Rel protein and CD28 RE.

The target in series [6] is T1, c-Rel (homodimer). Description: FP; 10 nM probe; FP saturated at 128 nM c-Rel; Kd said to be larger than by EMSA but no number in text; abolished by GST-IkBa. The note with it: tags: C-terminal His, E. coli BL-21 Lys (DE3); full-length or subdomain (not specified); chain copies: 2 stated; label: 5'-FITC. Here is the method:
as §1
It was next investigated whether this assay could detect a known endogenous inhibitor (IkBα) of c-Rel activity. […] Recombinant GST-IkBα previously generated (final concentration is 150 nM) was added to a binding reaction consisting of 10 nM FITC-CD28RE and 100 nM c-Rel. […] Thus, this assay detected specific inhibitors that function by directly binding c-Rel protein and inducing a conformation change. Moreover, consistent with the scatter data distribution shown in FIG. 3d, z factor, one assay performance indicator, was also evaluated. […]

Data on seven molecules can be found in US20100055116A1, “Methods and Compositions for Targeting c-Rel” (priority 2006, published 2010).

Peptide text beside a SMILES is read from it. * marks the point of attachment. Cbz = O=C(OCc1ccccc1)*; CH2F = FC*

With `Cc1ccc(S(=O)(=O)/C=C/C#N)cc1` [Bay 11], the “division of Pten-mutant cells” value in series [1] is listed as “completely blocked”. The cell apoptosis result in series [1] (propidium iodine staining) is “significant cell apoptosis”. The mitochondrial depolarization result in series [2] is “mitochondrial depolarization”.

For `CC(C)C[C@H](NC(=O)[C@H](Cc1ccccc1)NC(=O)c1cnccn1)B(O)O` [Velcade], the “division of Pten-mutant cells” value in series [1] is given as “completely blocked”. Also, in series [2], the mitochondrial depolarization entry is reported as “mitochondrial depolarization”.

As to `CC(NC(=O)[C@H](Cc1ccccc1)NC(=O)OCc1ccccc1)C(=O)CF` (stereo partly shown) [z-FA-fink], in series [3], the anti-IgM induced apoptosis result was “failed to inhibit”.

As to `COC(=O)CC[C@H](NC(=O)[C@H](CC(C)C)NC(=O)OCc1ccccc1)C(=O)N[C@@H](Cc1cnc[nH]1)C(=O)N[C@@H](CC(=O)OC)C(=O)CF` [z-LEHD-fmk] (Cbz-LE(OMe)HD(OMe)-CH2F), the “BCR-induced changes in DY (mitochondrial membrane potential)” value in series [4] was “Neither inhibitor reversed”.

`COC(=O)C[C@H](NC(=O)[C@H](C)NC(=O)[C@@H](NC(=O)OCc1ccccc1)C(C)C)C(=O)CF` [z-VAD-fmk] (Cbz-Val-Ala-Asp(OMe)-CH2F): the “BCR-induced changes in DY (mitochondrial membrane potential)” value in series [4] was “Neither inhibitor reversed”.

B1: CD28RE EMSA probe/unlabeled competitor (dsDNA)
DNA 1: TCTGGAATTTCTTTAAACCC
DNA 2: GGGTTTAAAGAAATTCCAGA
B1: the binding result in series [5] is given as “binds”.

B2: CD28RE kB site 20-mer FITC probe (dsDNA)
DNA 1: TCTGGAATTTCTTTAAACCC
DNA 2: GGGTTTAAAGAAATTCCAGA
For B2, in series [6], the binding result is “binds”.
